Among the data in patent US9120774B2 (University of Kansas, priority 2009, dated 2015) are IC50 values, retold here.

Molecules are shown by their SMILES. Read-outs that look alike come from different tables or passages of the source.

What all share (assay type): cell-based
In experiment [1] the test system is SkBr3 (Her2 overexpressing breast cancer cells). As to the kind of experiment: Anti-proliferation activity against SkBr3 cells (MTS/PMS). The conditions noted are these: Homo sapiens, SK-BR-3, n = 3, read-out: IC50 SkBr3. In a few lines:
(§1)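 Cells seeded at 2000/well, attached overnight, then exposed to compound at varying concentrations (1% DMSO final) for 72 hours at 37° C. Viable cells read by MTS/PMS, normalised to 1% DMSO as 100% proliferation. IC50 from separate triplicate experiments.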

Experiment [2] has as its system MCF-7 (estrogen receptor positive breast cancer cells). The experiment is described as follows: Anti-proliferation activity against MCF-7 cells (MTS/PMS). The conditions noted are these: Homo sapiens, MCF7, n = 3, read-out: IC50 MCF-7. In a few lines: as §1
The subject of experiment [3] is HCT-116 (colon cancer cells characterized by wild-type p53). The experiment is described as follows: Anti-proliferation activity against HCT-116 cells. As to conditions: Homo sapiens. The protocol: (§2) Upon completion of synthesis of library of compounds in Examples 23 and 24, the compounds were evaluated for anti-proliferative activity against SkBr3 (Her2 overexpressing breast cancer cells), MCF-7 (estrogen receptor positive breast cancer cells), HCT-116 (colon cancer cells characterized by wild-type p53), PL45 (pancreatic cancer cells), LNCaP (androgen sensitive prostate cancer cells) and PC-3 (androgen independent prostate cancer cells) cell lines. […] The monosubstituted benzamide variants improved activity.

The subject of experiment [4] is PL45 (pancreatic cancer cells). The experiment is described as follows: Anti-proliferation activity against PL45 cells. The protocol: as §2
Experiment [5] relates to LNCaP (androgen sensitive prostate cancer cells). The experiment is described as follows: Anti-proliferation activity against LNCaP cells. As to conditions: Homo sapiens, LNCaP, n = 3, read-out: IC50 LNCaP. In a few lines: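 Cells seeded at 2000/well in Advanced DMEM/F12 with 10% FBS and attached overnight, then given compound in 1% DMSO final for 72 h at 37 °C, 5% CO2. Viable cells by MTS/PMS read-out, normalised to 1% DMSO as 100% proliferation. IC50 from separate triplicate experiments.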

Experiment [6] relates to PC-3 (androgen independent prostate cancer cells). As to the kind of experiment: Anti-proliferation activity against PC-3 cells. The conditions noted are these: Homo sapiens, PC-3, n = 3, read-out: IC50 PC-3. In a few lines:
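Antiproliferative activity was tested in PC-3 androgen-independent prostate cancer cells. Cells grown at 37° C. with 5% CO2 in Advanced DMEM/F12 (1:1) containing non-essential amino acids, 2 mM L-glutamine, streptomycin, penicillin and 10% FBS were plated at 2000/well in 96-well plates. Proliferation was normalized to 1% DMSO controls, and IC50 values from triplicate experiments were fitted in GraphPad Prism.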

The mark [7] stands for this setting: Table 4, biaryl analogues, n = 3.
Setting [8] is: Table 5, heterocyclic analogues.
[9] abbreviates: Table 5, heterocyclic analogues, n = 3.

For `CO[C@@H]1[C@@H](O)[C@@H](O)[C@H](Oc2ccc3cc(NC(=O)CCc4ccccc4)c(=O)oc3c2C)OC1(C)C` [compound 23, N-(7-((2R,3R,4S,5R)-3,4-Dihydroxy-5-methoxy-6,6-dimethyltetrahydro-2H-pyran-2-yloxy)-8-methyl-2-oxo-2H-chromen-3-yl)-3-phenylpropanamide], the half-inhibitory concentration (IC50) was found to be 10.2 ± 2.3 µM in experiment [1] (Table 3); 6.9 ± 0.3 µM in experiment [2] (Table 3); 5.4 ± 0.6 µM in experiment [3] (Table 3, n = 3); 9.8 ± 0.2 µM in experiment [4] (Table 3, n = 3); 92.8 ± 0.9 µM in experiment [5] (Table 3); 22 ± 5.8 µM in experiment [6] (Table 3).
As for `COc1ccc(C(=O)Nc2cc3ccc(O[C@@H]4OC(C)(C)[C@H](OC)[C@@H](O)[C@H]4O)c(C)c3oc2=O)cc1-c1ccccc1` [compound 28, N-(7-((2R,3R,4S,5R)-3,4-Dihydroxy-5-methoxy-6,6-dimethyltetrahydro-2H-pyran-2-yloxy)-8-methyl-2-oxo-2H-chromen-3-yl)-6-methoxybiphenyl-3-carboxamide], the 50% inhibitory concentration (IC50) in experiment [1] (Table 4, biaryl analogues) amounted to 16.5 ± 4.7 µM; in experiment [2] (Table 4, biaryl analogues), 19.5 ± 2.3 µM; in experiment [3] (setting [7]), 11.4 µM; in experiment [4] (setting [7]), 2.8 ± 0.4 µM; in experiment [5] (Table 4, biaryl analogues), 1.9 ± 0.2 µM; in experiment [6] (Table 4, biaryl analogues) it was 25.4 ± 5.2 µM.
For the compound `COc1ccc(C(=O)Nc2cc3ccc(O[C@@H]4OC(C)(C)[C@H](OC)[C@@H](O)[C@H]4O)c(C)c3oc2=O)cc1-c1ccccc1C` [compound 29, N-(7-((2R,3R,4S,5R)-3,4-Dihydroxy-5-methoxy-6,6-dimethyltetrahydro-2H-pyran-2-yloxy)-8-methyl-2-oxo-2H-chromen-3-yl)-6-methoxy-2′-methylbiphenyl-3-carboxamide], the half-maximal inhibitory concentration (IC50) in experiment [1] (Table 4, biaryl analogues) was 32.4 ± 5.1 µM; in experiment [2] (Table 4, biaryl analogues), 18.9 ± 2.7 µM; in experiment [3] (setting [7]), 37.5 ± 3.4 µM; in experiment [4] (setting [7]), 6.8 ± 1.5 µM; in experiment [5] (Table 4, biaryl analogues), 22.6 ± 3.3 µM; in experiment [6] (Table 4, biaryl analogues), 64.7 ± 17.1 µM.
With `COc1ccc(C(=O)Nc2cc3ccc(O[C@@H]4OC(C)(C)[C@H](OC)[C@@H](O)[C@H]4O)c(C)c3oc2=O)cc1-c1cccc(C)c1` [compound 30, N-(7-((2R,3R,4S,5R)-3,4-Dihydroxy-5-methoxy-6,6-dimethyltetrahydro-2H-pyran-2-yloxy)-8-methyl-2-oxo-2H-chromen-3-yl)-6-methoxy-3′-methylbiphenyl-3-carboxamide], the IC50 in experiment [1] (Table 4, biaryl analogues) was 20.4 ± 3.5 µM; in experiment [2] (Table 4, biaryl analogues), 20.4 ± 0.8 µM; in experiment [3] (setting [7]), 26.4 ± 0.6 µM; in experiment [4] (setting [7]), 4.2 ± 1 µM; in experiment [5] (Table 4, biaryl analogues), 4.2 ± 1.2 µM; in experiment [6] (Table 4, biaryl analogues) it was 50.7 ± 4.3 µM.
As to `COc1ccc(C(=O)Nc2cc3ccc(O[C@@H]4OC(C)(C)[C@H](OC)[C@@H](O)[C@H]4O)c(C)c3oc2=O)cc1-c1ccc(C)cc1` [compound 31, N-(7-((2R,3R,4S,5R)-3,4-Dihydroxy-5-methoxy-6,6-dimethyltetrahydro-2H-pyran-2-yloxy)-8-methyl-2-oxo-2H-chromen-3-yl)-6-methoxy-4′-methylbiphenyl-3-carboxamide], the IC50 in experiment [1] (Table 4, biaryl analogues) worked out at 25.4 ± 1.7 µM; in experiment [2] (Table 4, biaryl analogues) it was 16.7 ± 6.3 µM; in experiment [3] (setting [7]), 2.4 ± 1 µM; in experiment [4] (setting [7]) it was 1.4 ± 0.1 µM; in experiment [5] (Table 4, biaryl analogues), 3.7 ± 0.9 µM; in experiment [6] (Table 4, biaryl analogues), 31.9 ± 10.3 µM.
Regarding `COc1cccc(-c2cc(C(=O)Nc3cc4ccc(O[C@@H]5OC(C)(C)[C@H](OC)[C@@H](O)[C@H]5O)c(C)c4oc3=O)ccc2OC)c1` [compound 33, N-(7-((2R,3R,4S,5R)-3,4-Dihydroxy-5-methoxy-6,6-dimethyltetrahydro-2H-pyran-2-yloxy)-8-methyl-2-oxo-2H-chromen-3-yl)-3′,6-dimethoxybiphenyl-3-carboxamide], the IC50 in experiment [1] (Table 4, biaryl analogues) was 7.5 ± 1 µM; in experiment [2] (Table 4, biaryl analogues), 18.7 ± 1.8 µM; in experiment [3] (setting [7]), 5.1 ± 1.1 µM; in experiment [4] (setting [7]), 2 ± 0.6 µM; in experiment [5] (Table 4, biaryl analogues), 2.1 ± 0.3 µM; in experiment [6] (Table 4, biaryl analogues), 53.3 ± 4.5 µM.
Regarding `COc1ccc(-c2cc(C(=O)Nc3cc4ccc(O[C@@H]5OC(C)(C)[C@H](OC)[C@@H](O)[C@H]5O)c(C)c4oc3=O)ccc2OC)cc1` [compound 34, N-(7-((2R,3R,4S,5R)-3,4-Dihydroxy-5-methoxy-6,6-dimethyltetrahydro-2H-pyran-2-yloxy)-8-methyl-2-oxo-2H-chromen-3-yl)-4′,6-dimethoxybiphenyl-3-carboxamide], the IC50 in experiment [1] (Table 4, biaryl analogues) came out at 7.8 ± 0.5 µM; in experiment [2] (Table 4, biaryl analogues) it was 37.9 ± 2.3 µM; in experiment [3] (setting [7]), 24 ± 0.3 µM; in experiment [4] (setting [7]) it was 2.6 ± 0.5 µM; in experiment [5] (Table 4, biaryl analogues), 3.3 ± 0.6 µM; in experiment [6] (Table 4, biaryl analogues) it was 44 ± 20.3 µM.
`COc1ccc(C(=O)Nc2cc3ccc(O[C@@H]4OC(C)(C)[C@H](OC)[C@@H](O)[C@H]4O)c(C)c3oc2=O)cc1-c1cccc(O)c1` [compound 36, N-(7-((2R,3R,4S,5R)-3,4-Dihydroxy-5-methoxy-6,6-dimethyltetrahydro-2H-pyran-2-yloxy)-8-methyl-2-oxo-2H-chromen-3-yl)-3′-hydroxy-6-methoxybiphenyl-3-carboxamide]: the IC50 in experiment [1] (Table 4, biaryl analogues) turned out to be 2.9 ± 1.2 µM; in experiment [2] (Table 4, biaryl analogues), 5.3 ± 1.5 µM; in experiment [3] (setting [7]), 4.5 ± 1.2 µM; in experiment [4] (setting [7]), 1.1 µM; in experiment [5] (Table 4, biaryl analogues), 2.5 ± 1.2 µM; in experiment [6] (Table 4, biaryl analogues) it was 14.7 ± 2.4 µM.
In the case of `COc1ccc(C(=O)Nc2cc3ccc(O[C@@H]4OC(C)(C)[C@H](OC)[C@@H](O)[C@H]4O)c(C)c3oc2=O)cc1-c1ccc(O)cc1` [compound 37, N-(7-((2R,3R,4S,5R)-3,4-Dihydroxy-5-methoxy-6,6-dimethyltetrahydro-2H-pyran-2-yloxy)-8-methyl-2-oxo-2H-chromen-3-yl)-4′-hydroxy-6-methoxybiphenyl-3-carboxamide], the half-inhibitory concentration (IC50) stood at 1.6 ± 0.2 µM in experiment [1] (Table 4, biaryl analogues); 2.3 ± 0.8 µM in experiment [2] (Table 4, biaryl analogues); 1.4 ± 0.1 µM in experiment [3] (setting [7]); 1.9 ± 0.8 µM in experiment [4] (setting [7]); 2.6 ± 0.5 µM in experiment [5] (Table 4, biaryl analogues); 22.3 ± 3.6 µM in experiment [6] (Table 4, biaryl analogues).
For the compound `COc1ccc(C(=O)Nc2cc3ccc(O[C@@H]4OC(C)(C)[C@H](OC)[C@@H](O)[C@H]4O)c(C)c3oc2=O)cc1-c1cccc2c1Sc1ccccc1S2` [compound 38, N-(7-((2R,3R,4S,5R)-3,4-Dihydroxy-5-methoxy-6,6-dimethyltetrahydro-2H-pyran-2-yloxy)-8-methyl-2-oxo-2H-chromen-3-yl)-4-methoxy-3-(thianthren-1-yl)benzamide], the concentration for half-maximal inhibition (IC50) in experiment [1] (Table 4, biaryl analogues) is over 100 µM; in experiment [2] (Table 4, biaryl analogues), over 100 µM; in experiment [3] (setting [7]), over 100 µM; in experiment [4] (setting [7]) it was over 100 µM; in experiment [5] (Table 4, biaryl analogues) it was 8.8 ± 0.6 µM; in experiment [6] (Table 4, biaryl analogues) it was 1 ± 0.1 µM.
Consider `CO[C@@H]1[C@@H](O)[C@@H](O)[C@H](Oc2ccc3cc(NC(=O)c4ccccn4)c(=O)oc3c2C)OC1(C)C` [compound 40, N-(7-((2R,3R,4S,5R)-3,4-Dihydroxy-5-methoxy-6,6-dimethyltetrahydro-2H-pyran-2-yloxy)-8-methyl-2-oxo-2H-chromen-3-yl)picolinamide], for which the 50% inhibitory concentration (IC50) in experiment [1] (setting [8]) worked out at 28.4 ± 2 µM; in experiment [2] (setting [8]), 20.3 ± 4.1 µM; in experiment [3] (setting [9]) it was 23.3 ± 5.9 µM; in experiment [4] (setting [9]) it was 7.9 ± 0.7 µM; in experiment [5] (setting [8]) it was 44.9 ± 31.1 µM; in experiment [6] (setting [8]), 15.1 ± 2.1 µM.
On to `CO[C@@H]1[C@@H](O)[C@@H](O)[C@H](Oc2ccc3cc(NC(=O)c4cccnc4)c(=O)oc3c2C)OC1(C)C` [compound 41, N-(7-((2R,3R,4S,5R)-3,4-Dihydroxy-5-methoxy-6,6-dimethyltetrahydro-2H-pyran-2-yloxy)-8-methyl-2-oxo-2H-chromen-3-yl)nicotinamide], for which the IC50 in experiment [1] (setting [8]) worked out at 65.9 ± 15.8 µM; in experiment [2] (setting [8]) it was 47.8 ± 4.2 µM; in experiment [3] (setting [9]), 37.3 ± 1 µM; in experiment [4] (setting [9]), 13.2 ± 1 µM; in experiment [5] (setting [8]), 50.1 ± 3.3 µM; in experiment [6] (setting [8]), 67 ± 20.2 µM.
On to `CO[C@@H]1[C@@H](O)[C@@H](O)[C@H](Oc2ccc3cc(NC(=O)c4ccc5c(c4)OCO5)c(=O)oc3c2C)OC1(C)C` [compound 45, N-(7-((2R,3R,4S,5R)-3,4-Dihydroxy-5-methoxy-6,6-dimethyltetrahydro-2H-pyran-2-yloxy)-8-methyl-2-oxo-2H-chromen-3-yl)benzo[d][1,3]dioxole-5-carboxamide], for which the IC50 is over 100 µM in experiment [1] (setting [8]); over 100 µM in experiment [2] (setting [8]); over 100 µM in experiment [3] (setting [9]); 5.2 ± 1.1 µM in experiment [4] (setting [9]); 9.3 ± 0.6 µM in experiment [5] (setting [8]); 10.9 ± 2.3 µM in experiment [6] (setting [8]).

In general, IC50 refers to the point on the concentration scale where inhibition reaches its midpoint.
